Each block holds one molecule with its values, some of them ahead of it.
Key:
[1] = test system: A20-HA lymphoma cells co-incubated with CD8+ T-cells isolated from CL4-HA transgenic animals; test: Co-culture assay of A20-HA lymphoma cells with CD8+ T-cells; format: cell-based, mouse; conditions: A20-HA cells pre-treated with 30uM inhibitor; for over-activation of CD8+ T-cells: 72h co-incubation
Description: Proteins were extracted using a buffer containing 20 mM Tris-HCl (pH 7.5) 150 mM NaCl, 1 mM Na2EDTA 1 mM EGTA 1% NP-40 1% sodium deoxycholate 2.5 mM sodium pyrophosphate 1 mM β-glycerophosphate 1 mM Na3VO4 1 µg/ml leupeptin) supplemented with protease (Sigma Aldrich, cat #11836153001) and phosphatases (Roche, cat #04906837001) inhibitors and quantified with the Bradford reagent (Bio-Rad, cat #5000006). 20-30 µg of proteins were resolved on SDS-PAGE and transferred at 20V for 20-30 minutes to Immobilon-P-membranes (Millipore). After blocking in 5% milk (Applichem, cat #A0830) in PBS-0.1%Tween (Fisher scientific, cat #BP337), membranes were incubated overnight in 5% milk in PBS-Tween with the following primary antibodies: goat anti-human Cathepsin S (RD, cat #AF1183, 1:2000), Cathepsin B (D1C7Y) XP® Rabbit (Cell signaling mAb #31718), rabbit anti-mouse Cathepsin S (Sino Biological, cat #50769-R054, 1:1000), mouse anti-human CD74 (PIN.1, StressMarq, cat #SMC-116, diluted 1:1000), rat-anti-mouse CD74 (clone ln-1, BD biosciences, cat #555317, 1:1000), rabbit anti-his-Tag (Cell Signaling, cat #D3I10, dilute 1:1000), mouse anti-human alpha-Tubulin (clone B-5-1-2, Sigma Aldrich, cat#T6072, diluted 1:10000), anti-beta actin (clone 8H10D10, ThermoFisher Scientific, cat# MA5-15452, 1:1000).
At the end of the B-cell/T cell co-culture, […] and analyzed for the proliferation of T cells stained with an Pe-Cy7 anti-mouse CD8a antibody (Clone 53-6.7, BD Biosciences, San Jose, CA, USA, cat #552877) or PercP efluor 710 rat anti-CD4 antibody (bd bioscience, cat#564379) by quantifying CellTrace violet proliferation peaks using flow cytometry. In parallel, B cell concentration was measured using cell-counting flow-cytometer (Guava easyCyte). A20-HA lymphoma cells wild-type, Ctss knock-out, B2m knock-out, and Pdl1 knock-out expressing HA as antigen were pre-treated with 30uM E64 (Apexbio Technology LLC (cat #A2576), 30uM Z-FL-COCHO (Anawa trading SA, cat #A13502-5), 30uM LY300328 (Lucerna Chem AG, cat # MCE-HY-15533) or-directly co-incubated for 72h with CellTrace violet stained CD8+ T-cells isolated from CL4-HA transgenic animals. At the end of the B-cell/T cell co-culture, cells were collected, stained with PE-Cy7 anti-mouse CD8a antibody (Clone 53-6.7, BD Biosciences, San Jose, CA, USA cat #552877) and analyzed for the proliferation of T cells stained by quantifying CellTrace violet proliferation peaks using flow cytometry. In parallel, B cell concentration was measured using cell-counting flow-cytometer (Guava easyCyte).

[2] = test system: human lymphoma cancer cell lines (Karpas-422 and DoHH2); test: Cell viability assay in lymphoma cell lines; format: cell-based; conditions: for toxicity / cell survival: Karpas-422 and DoHH2, 48h or 72h, increasing doses up to 50 µM
Description: Two human lymphoma cell lines DoHH2 and Karpas-422 and one murine lymphoma cell line A20 were treated with increasing concentration of compounds (1), (5) and (9). 24 hours before treatment cells were diluted at 2^∗10^5 cells/ml. Cell number was measured at 48h and 72h after treatment using automatic cell counting of Millipore Guava. The values were normalized to cells treated with the same dose of vehicle (DMSO).
Next, the toxicity of these inhibitors on two human lymphoma cancer cell lines (Karpas-422 and DoHH2). The cells were treated with the small molecules for 48h or 72h at increasing doses (50 µM, 10 µM, µM, 0.1 µM). […] Conversely, compound (9) progressively decreases cell proliferation of up to 50% after 72 hours of exposure to the 0. 1 µM of the compound or less than 30% in cells treated with 10 or 50 µM.

cathepsin H (CTSH) = cathepsin H (CTSH) (Homo sapiens, UniProt P09668); test: FRET specificity assay for cathepsin H; format: biochemical; conditions: peptide of SEQ ID NO: 2 as substrate, Fig. 5
Chain of cathepsin H (CTSH) (P09668 116-335 limits assumed, other chains not shown): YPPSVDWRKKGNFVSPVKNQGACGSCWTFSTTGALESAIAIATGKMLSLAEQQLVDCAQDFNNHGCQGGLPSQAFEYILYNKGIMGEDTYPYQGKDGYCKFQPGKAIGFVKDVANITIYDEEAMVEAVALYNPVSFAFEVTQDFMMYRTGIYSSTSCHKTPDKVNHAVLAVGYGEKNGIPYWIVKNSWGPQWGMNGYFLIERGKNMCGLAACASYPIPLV
Description: First, specific conditions to activate the enzymes were used as follows: CTSB was diluted in active buffer (MES 25 mM, DTT 5 mM, pH 5) at 10 µg/ml, incubated at 37°C for 2h and then diluted to 1 µg/ml in assay buffer (MES 25 mM, pH 5) for the FRET assay. CTSH was diluted in a specific active buffer (MES 50 mM, CaCl2 10 mM, NaCl 150 mM, pH 6.5) 200 µg/ml. In addition, as co-stimulatory activator thermolysin diluted at 100 µg/ml in active buffer was used mixed with equal volume of the diluted CTSH. The solution was incubated for 1h room temperature and then we added 2 mM Phosporamidon diluted in assay buffer (MES 50 mM, pH 6,5) and incubate the mix for 10 minutes at room temperature. Lastly, an equal volume of assay buffer containing 20 mM DTT was added and the mixture incubated 5 minutes at room temperature. For the FRET assay, diluted both CTSH, and CTSB at 1 µg/ml were used in their specific assay buffer and incubated with a specific substrate. […] Fluorescence emission was measured with SpectraMax iD3 (Molecular Devices) in kinetic mode over three hours (excitation: 330 nm, emission: 390 nm).

cathepsin B (CTSB) = cathepsin B (CTSB) (Homo sapiens, UniProt P07858); test: FRET specificity assay for cathepsin B; format: biochemical; conditions: for inhibition of Cathepsin B activity (MCA fluorescent emission): CTSB, peptide of SEQ ID NO: 5 as substrate, Fig. 4
Description: First, specific conditions to activate the enzymes were used as follows: CTSB was diluted in active buffer (MES 25 mM, DTT 5 mM, pH 5) at 10 µg/ml, incubated at 37°C for 2h and then diluted to 1 µg/ml in assay buffer (MES 25 mM, pH 5) for the FRET assay. CTSH was diluted in a specific active buffer (MES 50 mM, CaCl2 10 mM, NaCl 150 mM, pH 6.5) 200 µg/ml. In addition, as co-stimulatory activator thermolysin diluted at 100 µg/ml in active buffer was used mixed with equal volume of the diluted CTSH. The solution was incubated for 1h room temperature and then we added 2 mM Phosporamidon diluted in assay buffer (MES 50 mM, pH 6,5) and incubate the mix for 10 minutes at room temperature. Lastly, an equal volume of assay buffer containing 20 mM DTT was added and the mixture incubated 5 minutes at room temperature. For the FRET assay, diluted both CTSH, and CTSB at 1 µg/ml were used in their specific assay buffer and incubated with a specific substrate. As substrate, the following peptides were used: peptide of SEQ ID NO: 5 (KPPKPVSD) in CTSB FRET assays and SEQ ID NO: 1 (KLRMKLPKP) in CTSH FRET assays and tested increasing doses of candidate inhibitors (20 µM, 10 µM, 1 µM, 0.1 µM). Fluorescence emission was measured with SpectraMax iD3 (Molecular Devices) in kinetic mode over three hours (excitation: 330 nm, emission: 390 nm).

cathepsin S (CTSS) = molecular target: T1, cathepsin S (CTSS) (Homo sapiens, UniProt P25774); test: FRET assay for cathepsin S (inhibitor screen and substrate cleavage); format: biochemical; conditions: for inhibition of cathepsin S activity (MCA fluorescent emission): CTSS, peptide of SEQ ID NO: 1 as substrate, Fig. 3; for cleavage by CTSS as substrate: FRET, CTSS-His-WT, SEQ ID NO: 1 compared with SEQ ID NO: 4
T1 construct: made in house; host or cells: HEK293
T1 sequence (P25774 115-331): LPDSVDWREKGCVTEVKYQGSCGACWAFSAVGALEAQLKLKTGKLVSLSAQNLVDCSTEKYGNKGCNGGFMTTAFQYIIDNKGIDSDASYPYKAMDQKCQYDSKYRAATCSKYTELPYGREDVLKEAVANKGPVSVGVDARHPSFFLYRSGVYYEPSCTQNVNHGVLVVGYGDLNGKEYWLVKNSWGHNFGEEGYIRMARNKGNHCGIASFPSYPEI
Description: CTSS-His WT and Y132D were diluted to 10 µg/mL in Assay buffer (50 mM NaOAc, 5 mM DTT, 250 mM NaCl), at pH 4.5 and incubated at 37°C for 90 minutes to allow auto-activation. The proteins were then diluted to 0.5 ng/µl in Assay buffer and plated in 96-well plates (50 µl/well). The peptides of SEQ ID NO: 1, SEQ ID NO: 2, SEQ ID NO: 3, SEQ ID NO: 4 and SEQ ID NO: 5 were synthesized and diluted to 20 µM in a buffer (50 mM NaOAc, 5 mM DTT, 250 mM NaCl) then added to the activated CTSS (50 µl/well). 50 µM E64 (Selleckchem, cat #S7379) was added to CTSS prior to the substrate as positive control. A commercially available CTSS purified protein (R&D systems, cat #1183-CY-010) was in addition used as control. MCA emission was measured with SpectraMax iD3 (Molecular Devices) in kinetic mode for 20 minutes (excitation: 330 nm, emission: 390 nm).
The FRET assay was miniaturized to performed the screen in […] and each molecule was tested in duplicates. 10 µg/ml of CTSS was incubated in the activation buffer for 105 minutes to allow a complete activation of the enzyme. Then, the enzyme was diluted at 0.5 µg/ml and dispensed in […] pre-loaded with the small molecule candidates using an automatic dispenser (Biotek Dispenser multiflo). The plates were incubated for 10 minutes at room temperature and then 20 µM of substrate was added in each well and acquired the fluorescence signal (excitation: 330 nm, emission: 390 nm) after 90 minutes. For each plate, were included untreated wells as negative control and E64 was used (150 µM) as positive control. To assess the quality of the screen, a Z'-score for each plate was calculated and all plates had Z' score > 0.6. To identify possible hits, the average value and standard deviation of the positive and negative control were calculated. The upper and lower limit values for each plate were calculated considering plus/minus three times the standard deviation to the average and only compounds that in both independent duplicate scored below the positive control threshold were retained.

Molecule: CC(C)C[C@H](NC(=O)[C@H]1O[C@@H]1C(=O)O)C(=O)NCCCCNC(=N)N [E64]
accumulation of the small fragment of CD74, p10 [1]: observed
over-activation of CD8+ T-cells [1]: no over-activation

Molecule: Cc1nc(N2CCCC(C(=O)NCc3ccco3)C2)c2c(C)c(C)oc2n1 (stereo not shown) [compound (9), N-(2-furanylmethyl)-1-(2,5,6-trimethylfuro[2,3-d]pyrimidin-4-yl)-3-piperidinecarboxamide]
inhibition at 0.1 µM ([2]; Homo sapiens, after 72 hours of exposure to 0.1 µM, read-out: decrease of cell proliferation): ≤ 50%

Molecule: KLRMKLPKD [SEQ ID NO: 2]
cleavage by CTSS as substrate (cathepsin S (CTSS)): improved cathepsin S substrate

Molecule: KLRMKLPKP [SEQ ID NO: 1]
cleavage by CTSS as substrate (cathepsin S (CTSS)): cleaved more efficiently

Molecule: KPPKPVSK [SEQ ID NO: 4]
substrate for Cathepsin B (cathepsin B (CTSB)): good substrate for Cathepsin B

Molecule: Z-FL-COCHO
accumulation of the small fragment of CD74, p10 [1]: observed
over-activation of CD8+ T-cells [1]: no over-activation

Continued, in another order:

inhibition of Cathepsin H activity (MCA fluorescent emission) (cathepsin H (CTSH)): not Cathepsin H
inhibition of Cathepsin B activity (MCA fluorescent emission) (cathepsin B (CTSB)): not Cathepsin B
inhibition of cathepsin S activity (MCA fluorescent emission) (cathepsin S (CTSS)): able to inhibit cathepsin S activity
Molecule: O=c1ccc(-c2ccco2)nn1CCNS(=O)(=O)c1ccccc1F [compound (1), 2-fluoro-N-[2-[3-(2-furanyl)-6-oxo-1(6H)-pyridazinyl]ethyl]-benzenesulfonamide]
toxicity / cell survival [2]: well tolerated

inhibition of Cathepsin H activity (MCA fluorescent emission) (cathepsin H (CTSH)): not Cathepsin H
inhibition of Cathepsin B activity (MCA fluorescent emission) (cathepsin B (CTSB)): not Cathepsin B
inhibition of cathepsin S activity (MCA fluorescent emission) (cathepsin S (CTSS)): able to inhibit cathepsin S activity
Molecule: Cc1noc(C)c1CC(=O)NCCn1nc(-c2ccco2)ccc1=O [compound (5), N-[2-[3-(2-furanyl)-6-oxo-1(6H)-pyridazinyl]ethyl]-3,5-dimethyl-4-isoxazoleacetamide]
toxicity / cell survival [2]: well tolerated

inhibition of Cathepsin H activity (MCA fluorescent emission) (cathepsin H (CTSH)): not Cathepsin H
inhibition of Cathepsin B activity (MCA fluorescent emission) (cathepsin B (CTSB)): not Cathepsin B
inhibition of cathepsin S activity (MCA fluorescent emission) (cathepsin S (CTSS)): able to inhibit cathepsin S activity
Molecule: Cc1oc2ncnc(N3CCCC(C(=O)NCCc4ccco4)C3)c2c1C (stereo not shown) [compound (11), 1-(5,6-dimethylfuro[2,3-d]pyrimidin-4-yl)-N-[2-(2-furanyl)ethyl]-3-piperidinecarboxamide]
